# Assay results taken from patent US8354498B2, “CD4 mimic peptides and their uses” (Commissariat a l'Energie Atomique, priority 2006, dated 2013).
# Read-outs that look alike come from different tables or passages of the source.
# Tests used:
# [1] = tested on: gp120 isolates SF2, SF162, Bal, IIIB, YU2; assay: Direct binding by fluorescence anisotropy, comparison over all isolates; design: species or system HIV-1; conditions: depending on gp120 isolates
# Experimental: Direct binding assays of fluorescent peptides were performed in triplicates by adding 10 μL of 0.5 nM Alexa-labeled mini-proteins and 10 μL of serial dilutions (two-thirds dilutions in 16 wells, starting at 200 nM) of gp120 SF2, SF162, BaL, IIIB and YU2. Collected data were fitted to the following equation using a non-linear regression program (Prism, GraphPad software Inc.):
# The biphenylalanine in position 23 led to a 3 fold gain, consistent with the previously observed difference between CD4M33 and its [Phe^23]M33 mutant (Huang et al., Structure, 2005, 13, 755-768).
# [2] = target: T1, gp120SF162 binding to CCR5+-CHO cells (Human immunodeficiency virus type 1 group M subtype B, UniProt P19550); assay: FACS analysis of gp120 binding to CCR5+-CHO cells in presence of CD4 mimics; assay type: cell-based, HIV-1; conditions: gp120SF162 pre-incubated with mini-protein
# T1 construct: R5-tropic SF162 and Dual-tropic SF2 recombinant gp120s were produced in mammalian cells (CHO); made in house; host or cells: gp120: CHO; CCR5: transfected CHO-K1 cells
# Description: FIG. 7 illustrates the FACS analysis of the binding of recombinant envelope gp120 to CCR5^+-CHO cells in absence or in presence of various CD4-mimics, in comparison with soluble CD4.
# FIG. 13 illustrates the FACS analysis of the binding of recombinant envelope gp120 to CCR5^+-CHO cells in absence or in presence of various CD4-mimics in comparison with soluble CD4.
# FIG. 19 illustrates the FACS analysis of the binding of gp120SF162 to CCR5^+ CHO cells in absence or in presence of CD4M48 monomer or hetero-bivalent CD4M48−heparin. The ability of gp120 in complex with CD4M48 alone, CD4M48 covalently bound to heparin (noted M48−heparin), CD4M48 in presence of free LMW heparin (1:1) (noted M48+heparin) to bind to cellular co-receptor CCR5 was investigated.
# Adherent CHO-K1 cells expressing CCR5 (Samson et al., Biochemistry, 1996, 35, 3362-3367; Blanpain et al., Blood, 2000, 96, 1638-1645) were used to analyze gp120SF162 conformational change in complex with different mini-proteins, by FACS (BECKTON DICKINSON). Briefly, 0.03 μg of gp120SF162 were pre-incubated overnight at 4° C. in absence or in presence of 10 nM CD4 or 10 nM mini-proteins and further added to 2×10^5 cells in HAM F12 supplemented with 10% SVF, 1% penicillin/streptomycin. […] After final wash, cells were analyzed for envelope binding by FACS.
# [3] = tested on: gp120
# Experimental: Fluorescence anisotropy was determined after 40 min equilibration time at room temperature, using 485 nm excitation and 530 nm emission filters and an additional 505 nm dichroic filter. All experiments were performed in duplicate.
# Fluorescence anisotropy measurements were based on the assessment of the rotational motions of species. Whereas the CD4-mimic tumbles very fast in solution randomizing excited molecules, once it binds to gp120 envelopes, the excited mini-protein stays aligned during the process of emission and as a result, emitted light is polarized.
# [4] = tested on: gp120 (SF162, YU2, SF2, LAI, HXB2) binding to CD4i antibody 48d; assay: SPR analysis of binding of gp120 complexes to immobilized CD4i Ab 48d; design: species or system HIV-1; conditions: 50 nM gp120 premixed with 3 eq.
# Experimental: 120 μL of 50 nM gp120 preincubated with 3 eq. […] (A) gp120SF162, (B) gp120LAI. (C) gp120YU2.
# The different gp120 (SF162, YU2, LAI, HXB2, SF2) were premixed at a final concentration of 50 nM with 3 eq. CD4M48, 3 eq. CD4M48 in presence of 3 eq. LMW heparin or 3 eq. covalent CD4M48−heparin for 60 min before injection at 20 μL/min. All sensorgrams were corrected by substracting the signal from reference flow cell.
# [5] = tested on: HIV-1 6393(R5); assay: Acute infection assay in PM1 cells; assay type: cell-based; conditions: day 5, read-out: Antiviral activity IC50
# Experimental: (§1) For the acute infection assay in PM1 cell line (Lusso et al., J. virol., 1995, 69, 3712-3720), an immortalized CD4^+CCR5^+CXCR4^+ T-cell clone susceptible of a wide variety of HIV-1 strains, the cells were seeded at 2.5×10^4 cells/well into flat-bottom 96-well plates in 200 μL of complete RPMI medium. Cells were then exposed to the viral stocks (˜50 TCID50/well) pre-treated or not with serial dilutions of inhibitors for 30 min. After overnight incubation at 37° C., the cells were washed twice and recultured in complete RPMI medium supplemented with the appropriate inhibitors. After 3, 5 or 7 days, the culture supernatant was removed […] p24 antigen testing and replaced with fresh medium containing the appropriate inhibitors. The extracellular p24 concentrations were measured by capture ELISA, using a sandwich of specific antibodies (AALTO BIO REAGENTS).
# (§2) The experimental procedures are as described in example 1.
# [6] = tested on: HIV-1 714(R5); assay: Acute infection assay in PM1 cells; assay type: cell-based; conditions: day 5, read-out: Antiviral activity IC50
# Experimental: as §1, §2
# [7] = tested on: HIV-1 BaL(R5); assay: Acute infection assay in PM1 cells; assay type: cell-based; conditions: day 5, read-out: Antiviral activity IC50
# Experimental: as §1, §2
# [8] = tested on: HIV-1 NL4.3 (X4); assay type: cell-based
# Experimental: The antiviral activity of the molecules in MT-4 cells was determined using a tetrazolium-based colorimetric assay (Hase et al., Biochem. Pharmacol., 2005, 70, 752-761). Briefly, five-fold dilutions of the test compounds in 100 μL of medium were added to duplicate wells of 96-well flat bottom plates (IWAKI). Then 6×10^4 MT-4 cells were added in 50 μL of medium, and finally 50 μL of diluted HIV-1 stocks was added to each well. Cytopathic effect induced by the virus was monitored by daily microscopic evaluation of the virus-infected cell cultures. At day 4-5 after infection, the cell viability was assessed via the in situ reduction of the tetrazolium compound MTS, using the CellTiter 96® AQueous one solution cell proliferation assay (PROMEGA). The absorbance was then measured at 490 nm with a 96-well plate reader and compared with four cell control replicates (cells without virus and drugs) and four virus control wells (virus-infected cells without drugs). The IC50 was calculated for each compound from the dose-response curve.
# as §2
# [9] = tested on: HIV-1 NL4.3(X4); assay type: cell-based
# Experimental: The acute infection assays in primary cells were performed as described by Schols and coworkers (Balzarini et al., J. Biol. Chem., 2005, 280, 41005-41014). Briefly, PBMC from healthy donors were isolated by density gradient centrifugation and stimulated by phytohemagglutinin (PHA; SIGMA) in RPMI 1640 medium supplemented with 10% foetal calf serum (FCS; BIOCHROM). PBMC were infected by exposing cells (0.5×10^6/well; 48-well plate) to the viral stocks added at a final dose of 250 pg of p24/mL in the presence or the absence of the inhibitors. Cell supernatant was collected at day 12, and HIV-1 core Ag in the culture supernatant was analysed by a p24 Ag enzyme-linked immunosorbent assay kit (PERKIN ELMER).
# as §2
# [10] = target: gp120SF162 (Human immunodeficiency virus type 1 group M subtype B, UniProt P19550); conditions: injected at 125 nM; curves normalized to CD4M48
# Experimental: 100 μL of monomer, dimers and tetramers were passed over the surface at 20 μL/min after which dissociation of bound inhibitors was monitored for 15 min.
# All experiments were conducted at 25° C. with 20 μL/min flow rate in HBS (50 mM HEPES-buffered saline, 3 mM EDTA, 0.05% Biacore surfactant P20, pH 7.4) with a BIACORE 3000 instrument (BIACORE AB).
# For binding of multimers to gp120, gp120SF162 was immobilized on a CM5 sensor chip at 9000 RU by the amine coupling kit provided by the manufacturer.
# [11] = MT-4 cells, NL4.3 (X4), day 5, read-out: Antiviral activity IC50
Substance,Improvement of affinity (Kd) compared to CD4M33 [1],IC50 [5] [nM],IC50 [6] [nM],IC50 [7] [nM],"IC50 [8, 11] [nM]",further results
CD4M47-F1: CD4M47 labeled with Alexa-488 probe at Lys11,5.2- to 12.3 fold,,,,,
CD4M48-F1: CD4M48 labeled with Alexa-488 probe at Lys11 (XNLHFCQLRCKSLGLLGRCAXTFCACV; not fully specified; D-residues),1.1 to 6.1 fold,,,,,
CD4M48-hep: hetero-bivalent inhibitor: CD4M48-hydrazino (Lys-11) covalently ligated to heparin mono-aldehyde (XNLHFCQLRCKSLGLLGRCAXTFCACV; not fully specified; D-residues),,,,,,Binding of gp120 to CCR5+-CHO cells induced by the mimic (conformational change of gp120) [2]: prevents the binding of the complex to CCR5+ cells; Inhibition of CD4M33-F1 binding to gp120 (competitive polarization) [3]: nanomolar range; Recognition of the gp120 complex by CD4i Ab 48d [4]: inhibit completely the recognition of the complex by CD4i-Ab 48d
CD4M48T50: CD4M48 tetramer on polylysine construct with 50 Å PEGylated linkers,,350,680,310,31,"IC50 ([9]; PBMC, day 12, read-out: Antiviral activity IC50): < 26 nM"
CD4M48T100: CD4M48 tetramer on polylysine construct with 100 Å PEGylated linkers (XNLHFCQLRCKSLGLLGRCAXTFCACV; not fully specified; D-residues),,55,360,45,22,Dissociation from immobilized gp120 (off-rate) compared to monomer CD4M48 [10]: slowed-down dissociation phase
Enfuvirtide,,,,,,IC50 ([8]; NL4.3(X4)): 11 nM; IC50 [9]: 13 nM
